Measured values reported in ChEMBL document CHEMBL3352436, “DDD-028: a potent potential non-opioid, non-cannabinoid analgesic for neuropathic and inflammatory pain” (Bioorg Med Chem Lett, 2014).
Active and inactive are the calls of the source.

Legend:
[1] = test system: Rattus norvegicus; test: Antinociceptive activity in Complete Freund's adjuvant-induced inflammatory pain CD rat model assessed as mechanical hypersensitivity measured as weight bearing capacity at 5 mg/kg, po measured after 15 to 120 mins relative to control; assay type: functional
[2] = Binding affinity to sigma2 receptor (unknown origin); set-up: species or system Homo sapiens
[3] = target: Transient receptor potential cation channel subfamily V member 1 (Homo sapiens, UniProt Q8NER1); test: Binding affinity to TRPV1 (unknown origin)
Transient receptor potential cation channel subfamily V member 1, sequence (Q8NER1 whole entry): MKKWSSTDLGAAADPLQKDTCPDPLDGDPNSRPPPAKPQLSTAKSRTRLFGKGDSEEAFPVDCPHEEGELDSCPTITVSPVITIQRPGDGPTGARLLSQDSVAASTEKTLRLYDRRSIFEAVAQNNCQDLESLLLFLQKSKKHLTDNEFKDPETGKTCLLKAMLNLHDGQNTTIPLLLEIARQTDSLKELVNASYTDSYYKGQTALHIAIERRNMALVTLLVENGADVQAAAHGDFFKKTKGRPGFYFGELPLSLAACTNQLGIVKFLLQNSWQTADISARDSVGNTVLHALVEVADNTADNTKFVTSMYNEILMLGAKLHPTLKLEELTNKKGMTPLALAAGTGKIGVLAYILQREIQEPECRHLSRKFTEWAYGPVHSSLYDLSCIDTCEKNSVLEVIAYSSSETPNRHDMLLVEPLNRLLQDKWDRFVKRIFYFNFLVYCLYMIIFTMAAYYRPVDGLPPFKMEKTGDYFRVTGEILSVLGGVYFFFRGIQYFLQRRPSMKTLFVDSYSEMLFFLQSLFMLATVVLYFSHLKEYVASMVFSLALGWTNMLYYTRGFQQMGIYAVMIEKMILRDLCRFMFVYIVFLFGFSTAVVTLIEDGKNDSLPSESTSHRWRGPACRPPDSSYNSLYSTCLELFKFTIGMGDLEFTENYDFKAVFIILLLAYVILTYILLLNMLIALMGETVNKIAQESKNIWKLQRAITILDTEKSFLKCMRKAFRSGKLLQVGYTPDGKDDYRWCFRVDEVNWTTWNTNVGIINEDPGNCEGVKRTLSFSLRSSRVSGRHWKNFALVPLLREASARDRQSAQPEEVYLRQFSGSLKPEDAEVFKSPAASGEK

[4] = test system: Rattus norvegicus; test: Antinociceptive activity in Complete Freund's adjuvant-induced inflammatory pain CD rat model assessed as mechanical hypersensitivity measured as weight bearing capacity at 5 mg/kg, po measured after 15 to 120 mins relative to indomethacin; assay type: functional
[5] = Binding affinity to […] AMPA receptor (unknown origin); set-up: species or system Homo sapiens
[6] = target: Cannabinoid receptor 1 (Homo sapiens, UniProt P21554); test: Binding affinity to cannabinoid CB1 receptor (unknown origin)
Cannabinoid receptor 1, sequence (P21554 whole entry): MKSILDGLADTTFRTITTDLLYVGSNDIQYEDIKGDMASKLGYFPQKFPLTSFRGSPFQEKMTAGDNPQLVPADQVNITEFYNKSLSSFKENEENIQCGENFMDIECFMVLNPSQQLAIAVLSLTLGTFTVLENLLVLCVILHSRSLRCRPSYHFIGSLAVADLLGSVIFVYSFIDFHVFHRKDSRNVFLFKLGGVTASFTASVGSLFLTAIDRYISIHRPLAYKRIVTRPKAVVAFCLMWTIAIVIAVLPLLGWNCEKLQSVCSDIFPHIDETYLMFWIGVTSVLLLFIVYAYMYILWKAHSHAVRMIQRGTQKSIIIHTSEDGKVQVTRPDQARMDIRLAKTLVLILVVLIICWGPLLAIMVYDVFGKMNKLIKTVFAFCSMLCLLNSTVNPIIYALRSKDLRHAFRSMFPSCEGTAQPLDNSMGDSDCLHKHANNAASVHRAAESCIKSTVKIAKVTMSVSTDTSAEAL

[7] = test system: Mus musculus; test: Antinociceptive activity in sciatic nerve chronic constriction injury CD1 mouse model assessed as paw withdrawal threshold at 3.5 umol/kg, po measured at 300 mins (reference value: 0.26 to 0.37 g); assay type: functional
[8] = Half life in CD1 mouse at 5 mg/kg, po; assay type: ADME, organism-based; set-up: dose 5 mg/kg, route oral; details: in vivo
[9] = test system: Mus musculus; test: Antinociceptive activity in sciatic nerve chronic constriction injury CD1 mouse model assessed as paw withdrawal threshold at 3.5 umol/kg, po measured at 120 mins (reference value: 0.26 to 0.37 g); assay type: functional
[10] = target: Somatostatin receptor type 4 (Homo sapiens, UniProt P31391); test: Binding affinity to SST4 receptor (unknown origin)
Somatostatin receptor type 4, sequence (P31391 whole entry): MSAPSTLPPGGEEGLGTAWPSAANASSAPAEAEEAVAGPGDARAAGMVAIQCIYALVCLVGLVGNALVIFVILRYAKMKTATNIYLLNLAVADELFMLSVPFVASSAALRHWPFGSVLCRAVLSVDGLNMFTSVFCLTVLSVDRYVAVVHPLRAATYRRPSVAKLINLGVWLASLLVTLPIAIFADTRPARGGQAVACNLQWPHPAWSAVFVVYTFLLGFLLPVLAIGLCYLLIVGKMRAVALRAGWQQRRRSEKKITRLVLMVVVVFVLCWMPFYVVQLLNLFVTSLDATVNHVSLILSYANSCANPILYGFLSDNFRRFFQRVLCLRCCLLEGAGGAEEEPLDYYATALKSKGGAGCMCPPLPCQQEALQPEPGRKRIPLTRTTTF

[11] = target: T1, Adenosine receptor A1 (Homo sapiens, UniProt P30542); test: Binding affinity to adenosine A1 receptor (unknown origin)
T1 sequence (P30542 whole entry): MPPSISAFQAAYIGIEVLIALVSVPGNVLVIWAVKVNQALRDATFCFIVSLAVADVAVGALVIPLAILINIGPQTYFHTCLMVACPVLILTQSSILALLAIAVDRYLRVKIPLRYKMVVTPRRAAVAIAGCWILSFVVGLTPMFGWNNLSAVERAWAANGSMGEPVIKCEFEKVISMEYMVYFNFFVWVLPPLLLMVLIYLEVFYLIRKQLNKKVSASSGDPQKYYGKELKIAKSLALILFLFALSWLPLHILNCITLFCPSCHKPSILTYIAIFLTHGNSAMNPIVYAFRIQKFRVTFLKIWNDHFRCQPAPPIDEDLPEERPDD

[12] = target: Somatostatin receptor type 2 (Homo sapiens, UniProt P30874); test: Binding affinity to SST2 receptor (unknown origin)
Somatostatin receptor type 2, sequence (P30874 whole entry): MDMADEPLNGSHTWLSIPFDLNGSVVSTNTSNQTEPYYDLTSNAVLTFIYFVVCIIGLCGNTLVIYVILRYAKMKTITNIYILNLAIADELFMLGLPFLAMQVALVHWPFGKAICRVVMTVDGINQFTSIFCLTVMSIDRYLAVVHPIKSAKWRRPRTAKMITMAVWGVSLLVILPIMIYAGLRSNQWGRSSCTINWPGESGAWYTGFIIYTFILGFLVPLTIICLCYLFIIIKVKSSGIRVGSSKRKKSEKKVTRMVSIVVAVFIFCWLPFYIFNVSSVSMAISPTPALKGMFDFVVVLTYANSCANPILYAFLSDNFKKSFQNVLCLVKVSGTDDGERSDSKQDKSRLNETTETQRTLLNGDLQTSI

[13] = Tmax in CD1 mouse at 5 mg/kg, po; assay type: ADME, organism-based; set-up: dose 5 mg/kg, route oral; details: in vivo
[14] = test system: Rattus norvegicus; test: Antinociceptive activity in spinal nerve ligation CD rat model of neuropathic pain assessed as inhibition of mechanical allodynia measured as paw withdrawal threshold at 5 mg/kg, po after 15 to 180 mins relative to pregabalin; assay type: functional
[15] = test system: Mus musculus; test: Antinociceptive activity in sciatic nerve chronic constriction injury CD1 mouse model assessed as paw withdrawal threshold at 1.3 umol/kg administered intrathecally measured at 30 mins (reference value: 0.21 to 0.30 g); assay type: functional
[16] = test system: Rattus norvegicus; test: Antinociceptive activity in Complete Freund's adjuvant-induced inflammatory pain CD rat model assessed as mechanical hypersensitivity measured as weight bearing capacity at 5 mg/kg, po administered before challenge relative to control; assay type: functional
[17] = AUC (0 to infinity) in CD1 mouse at 5 mg/kg, po; assay type: ADME, organism-based; set-up: time infinity, dose 5 mg/kg, route oral; details: plasma
[18] = target: Adenosine receptor A2a (Homo sapiens, UniProt P29274); test: Binding affinity to adenosine A2A receptor (unknown origin)
Adenosine receptor A2a, sequence (P29274 whole entry): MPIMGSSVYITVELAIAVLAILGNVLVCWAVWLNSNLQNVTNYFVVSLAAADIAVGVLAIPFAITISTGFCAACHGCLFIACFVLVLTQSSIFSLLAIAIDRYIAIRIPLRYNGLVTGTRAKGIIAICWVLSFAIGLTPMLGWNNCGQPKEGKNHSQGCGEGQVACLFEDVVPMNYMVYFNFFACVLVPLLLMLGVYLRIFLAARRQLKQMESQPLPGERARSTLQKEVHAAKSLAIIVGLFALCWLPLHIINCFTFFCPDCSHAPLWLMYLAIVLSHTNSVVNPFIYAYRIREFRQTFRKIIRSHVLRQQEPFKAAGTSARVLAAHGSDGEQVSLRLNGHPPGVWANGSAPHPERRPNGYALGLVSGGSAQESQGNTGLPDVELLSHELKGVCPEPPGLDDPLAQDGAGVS

[19] = test system: Rattus norvegicus; test: Antinociceptive activity in Complete Freund's adjuvant-induced inflammatory pain CD rat model assessed as time required for maximal effect at 5 mg/kg, po relative to control; assay type: functional
[20] = test system: Mus musculus; test: Antinociceptive activity in sciatic nerve chronic constriction injury CD1 mouse model assessed as paw withdrawal threshold at 3.5 umol/kg, po measured at 60 mins (reference value: 0.26 to 0.37 g); assay type: functional
[21] = Binding affinity to strychnine-sensitive glycine receptor (unknown origin); set-up: species or system Homo sapiens
[22] = test system: Mus musculus; test: Antinociceptive activity in sciatic nerve chronic constriction injury CD1 mouse model assessed as paw withdrawal threshold at 3.5 umol/kg, po measured at 30 mins (reference value: 0.26 to 0.37 g); assay type: functional
[23] = target: Cannabinoid receptor 2 (Homo sapiens, UniProt P34972); test: Binding affinity to cannabinoid CB2 receptor (unknown origin)
Cannabinoid receptor 2, sequence (P34972 whole entry): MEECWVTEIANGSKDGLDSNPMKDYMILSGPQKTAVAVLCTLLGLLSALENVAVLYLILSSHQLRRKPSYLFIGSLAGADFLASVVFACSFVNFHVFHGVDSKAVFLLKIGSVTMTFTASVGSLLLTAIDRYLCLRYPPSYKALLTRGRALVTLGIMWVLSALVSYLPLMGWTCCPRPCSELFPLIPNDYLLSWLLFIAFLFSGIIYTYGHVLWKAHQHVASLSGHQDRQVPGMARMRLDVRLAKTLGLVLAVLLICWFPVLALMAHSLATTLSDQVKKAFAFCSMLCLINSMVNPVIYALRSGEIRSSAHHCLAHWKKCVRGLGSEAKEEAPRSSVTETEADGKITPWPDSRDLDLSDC

[24] = test system: Mus musculus; test: Antinociceptive activity in sciatic nerve chronic constriction injury CD1 mouse model assessed as paw withdrawal threshold at 1.3 umol/kg administered intrathecally measured at 180 mins (reference value: 0.21 to 0.30 g); assay type: functional
[25] = test system: Mus musculus; test: Antinociceptive activity in sciatic nerve chronic constriction injury CD1 mouse model assessed as paw withdrawal threshold at 1.3 umol/kg administered intrathecally measured at 60 mins (reference value: 0.21 to 0.30 g); assay type: functional
[26] = test system: Rattus norvegicus; test: Antinociceptive activity in Complete Freund's adjuvant-induced inflammatory pain CD rat model assessed as mechanical hypersensitivity measured as weight bearing capacity at 5 mg/kg, po administered 24 hrs post challenge relative to control; assay type: functional
[27] = target: T2, Adenosine receptor A3 (Homo sapiens, UniProt P0DMS8); test: Binding affinity to adenosine A3 receptor (unknown origin)
T2 sequence (P0DMS8 whole entry): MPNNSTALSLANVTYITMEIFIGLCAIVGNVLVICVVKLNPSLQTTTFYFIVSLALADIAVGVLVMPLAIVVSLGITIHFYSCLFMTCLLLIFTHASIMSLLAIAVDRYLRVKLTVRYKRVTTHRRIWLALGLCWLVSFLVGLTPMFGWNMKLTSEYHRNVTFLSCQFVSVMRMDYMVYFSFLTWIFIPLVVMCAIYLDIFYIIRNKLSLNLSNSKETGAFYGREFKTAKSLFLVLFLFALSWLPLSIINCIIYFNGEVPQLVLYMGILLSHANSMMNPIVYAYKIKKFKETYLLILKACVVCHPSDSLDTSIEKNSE

[28] = test system: Mus musculus; test: Antinociceptive activity in sciatic nerve chronic constriction injury CD1 mouse model assessed as paw withdrawal threshold at 1.3 umol/kg administered intrathecally measured at 120 mins (reference value: 0.21 to 0.30 g); assay type: functional
[29] = test system: Rattus norvegicus; test: Antinociceptive activity in Complete Freund's adjuvant-induced inflammatory pain CD rat model assessed as mechanical hypersensitivity measured as weight bearing capacity at 5 mg/kg, po measured up to 15 mins relative to control; assay type: functional, organism-based; set-up: dose 5 mg/kg
[30] = test system: Mus musculus; test: Antinociceptive activity in sciatic nerve chronic constriction injury CD1 mouse model assessed as paw withdrawal threshold at 1.3 umol/kg administered intrathecally measured at 300 mins (reference value: 0.21 to 0.30 g); assay type: functional
[31] = Elimination rate constant in CD1 mouse at 5 mg/kg, po; assay type: ADME, organism-based; set-up: dose 5 mg/kg, route oral; details: in vivo
[32] = test system: Rattus norvegicus; test: Toxicity in Complete Freund's adjuvant-induced inflammatory pain CD rat model assessed as sedation at 5 mg/kg, po measured at 2 hrs post dose; assay type: organism-based; set-up: dose 5 mg/kg, route oral; details: in vivo
[33] = Cmax in CD1 mouse at 5 mg/kg, po; assay type: ADME, organism-based; set-up: dose 5 mg/kg, route oral; details: in vivo
[34] = AUC (0 to t) in CD1 mouse at 5 mg/kg, po; assay type: ADME, organism-based; set-up: dose 5 mg/kg, route oral; details: plasma
[35] = test system: Mus musculus; test: Antinociceptive activity in sciatic nerve chronic constriction injury CD1 mouse model assessed as paw withdrawal threshold at 3.5 umol/kg, po measured at 180 mins (reference value: 0.26 to 0.37 g); assay type: functional
[36] = test system: Rattus norvegicus; test: Antinociceptive activity in spinal nerve ligation CD rat model of neuropathic pain assessed as inhibition of mechanical allodynia measured as time required for maximal effect at 5 mg/kg, po; assay type: functional
[37] = Binding affinity to strychnine-insensitive glycine receptor (unknown origin); set-up: species or system Homo sapiens
[38] = test system: Rattus norvegicus; test: Antinociceptive activity in spinal nerve ligation CD rat model of neuropathic pain assessed as inhibition of mechanical allodynia at 39 mg/kg, po after 15 to 180 mins; assay type: functional
[39] = Cmax in CD rat at 27 mg/kg, iv; assay type: ADME, organism-based; set-up: dose 27 mg/kg, route intravenous; details: in vivo
[40] = AUC (0 to infinity) in CD rat at 27 mg/kg, iv; assay type: ADME, organism-based; set-up: time infinity, dose 27 mg/kg, route intravenous; details: plasma
[41] = Half life in CD rat at 27 mg/kg, iv; assay type: ADME, organism-based; set-up: dose 27 mg/kg, route intravenous; details: in vivo
[42] = Tmax in CD rat at 27 mg/kg, iv; assay type: ADME, organism-based; set-up: dose 27 mg/kg, route intravenous; details: in vivo
[43] = Elimination rate constant in CD rat at 27 mg/kg, iv; assay type: ADME, organism-based; set-up: dose 27 mg/kg, route intravenous; details: in vivo
[44] = test system: Rattus norvegicus; test: Antinociceptive activity in Complete Freund's adjuvant-induced inflammatory pain CD rat model assessed as time required for maximal effect at 30 mg/kg, po relative to control; assay type: functional
[45] = test system: Rattus norvegicus; test: Antinociceptive activity in Complete Freund's adjuvant-induced inflammatory pain CD rat model assessed as mechanical hypersensitivity measured as weight bearing capacity at 30 mg/kg, po measured up to 15 mins relative to control; assay type: functional, organism-based; set-up: dose 30 mg/kg
[46] = AUC (0 to t) in CD rat at 27 mg/kg, iv; assay type: ADME, organism-based; set-up: dose 27 mg/kg, route intravenous; details: plasma
[47] = test system: Rattus norvegicus; test: Antinociceptive activity in Complete Freund's adjuvant-induced inflammatory pain CD rat model assessed as mechanical hypersensitivity measured as weight bearing capacity at 30 mg/kg, po measured after 15 to 120 mins relative to control; assay type: functional, organism-based; set-up: dose 30 mg/kg
[48] = test system: Rattus norvegicus; test: Toxicity in Complete Freund's adjuvant-induced inflammatory pain CD rat model assessed as sedation at 30 mg/kg, po measured at 2 hrs post dose; assay type: organism-based; set-up: dose 30 mg/kg, route oral; details: in vivo
[49] = test system: Rattus norvegicus; test: Antinociceptive activity in spinal nerve ligation CD rat model of neuropathic pain assessed as inhibition of mechanical allodynia measured as time required for maximal effect at 39 mg/kg, po; assay type: functional
[50] = test system: Rattus norvegicus; test: Antinociceptive activity in spinal nerve ligation CD rat model of neuropathic pain assessed as inhibition of mechanical allodynia measured as paw withdrawal threshold at 39 mg/kg, po up to 15 mins; assay type: functional, organism-based; set-up: dose 39 mg/kg

CN1CCc2c(c3cccc4c3n2CCc2ccccc2-4)C1
Activity [1]: 90% | Ki [2]: 0.312 µM | Ki [3]: Not Active | fold change (FC) [4]: 5 | Ki [5]: > 10 µM | Ki [6]: > 10 µM | Activity [7]: 0.21 g | half-life [8]: 1.86 h | Activity [9]: 0.57 g | Ki [10]: > 10 µM | Ki [11]: > 10 µM | Ki [12]: > 10 µM | Tmax [13]: 0.25 h | fold change (FC) [14]: 7 | Activity [15]: 0.86 g | Activity [16]: 50.8% | AUC(0-inf) [17]: 216 ng·h/mL | Ki [18]: > 10 µM | Time [19]: 60 min | Activity [20]: 1.09 g | Ki [21]: > 10 µM | Activity [22]: 0.75 g | Ki [23]: > 10 µM | Activity [24]: 0.41 g | Activity [25]: 0.88 g | Activity [26]: 35.2% | Ki [27]: > 10 µM | Activity [28]: 0.67 g | Activity [29]: Active | Activity [30]: 0.21 g | k el [31]: 0.000103 s⁻¹ | Activity [32]: Non-toxic | Cmax [33]: 126 ng/mL | AUC(0-t) [34]: 211 ng·h/mL | Activity [35]: 0.4 g | Time [36]: 30 min | Ki [37]: > 10 µM | inhibition in vivo at 39 mg/kg [38]: 50%

COc1ccc2c(c1)c(CC(=O)O)c(C)n2C(=O)c1ccc(Cl)cc1 [INDOMETHACIN]
Cmax [39]: 10400 ng/mL | AUC(0-inf) [40]: 97100 ng·h/mL | half-life [41]: 5.99 h | Tmax [42]: 0.75 h | k el [43]: 3.33e-05 s⁻¹ | Time [44]: 60 min | Activity [45]: Active | AUC(0-t) [46]: 93800 ng·h/mL | Activity [47]: Active | Activity [48]: Toxic

CC(C)C[C@H](CN)CC(=O)O [PREGABALIN]
Time [49]: 120 min | inhibition [50]: Active
